From patent US20120189543A1, “Compositions and Methods for Detecting and Treating Implant Loosening and Osteolysis” (priority 2009, published 2012)

Tests used:
[1] = test system: pro-inflammatory cytokine response (e.g., TNF and IL-1); experiment: Particle-induced pro-inflammatory cytokine response in human monocytes; conditions: pretreatment of PMMA challenged monocytes
Protocol: (§1) Cells were cultured for 24 hours at a cell density of 10^6 cells/mL in a-MEM medium (Invitrogen, Carlsbad, Calif.) supplemented with 10% fetal bovine serum (VWR, West Chester, Pa.) and 1% antibiotic/antimycotic (Invitrogen, Carlsbad, Calif.) in the presence of 10 ng/mL human M-CSF (Peprotech, Rocky Hill, N.J.) in 24-well tissue culture plates (1 mL/well). Cells were then pulsed for 4 hours with P-Dex (5 μM) or free Dex (dexamethasone phosphate sodium, 0.6 μM), washed and replenished with fresh medium. […] After 24 hours, cells were treated +/−PMMA particles (30 particles/cell) for 3 hours. Total cellular RNA was prepared (RNeasy, Qiagen) and analyzed by real-time RT-PCR as previously described for inflammatory cytokines (IL 1-α, IL-1- β).

IL-1α mRNA = experiment: PMMA particle-induced IL-1α mRNA in cultured human monocytes (real-time RT-PCR); conditions: 4 hours pulse P-Dex 5 μM or free Dex 0.6 μM, PMMA 3 hours; n=3; p<0.05
Protocol: as §1

IL-1β mRNA = experiment: PMMA particle-induced IL-1β mRNA in cultured human monocytes (real-time RT-PCR); conditions: 4 hours pulse P-Dex 5 μM or free Dex 0.6 μM, PMMA 3 hours; n=3
Protocol: as §1

[2] = test system: PMMA particle implantation site (calvaria); set-up: species or system Swiss Webster mice; conditions: mouse, in vivo
Excerpt: The group injected with PBS was used as a negative control and was given the same dose of P-IRDye. The mice were imaged prior to and daily after contrast agent injection using an XENOGEN IVIS® 200 Series Imaging System (Hopkinton, Mass.) to evaluate the distribution of the HPMA copolymer conjugate continuously for the 6 days.

Compound: C[C@@H]1C[C@H]2[C@@H]3CCC4=CC(=O)C=C[C@]4(C)[C@@]3(F)[C@@H](O)C[C@]2(C)[C@@]1(O)C(=O)COP(=O)([O-])[O-].[Na+].[Na+] [Dex, dexamethasone phosphate sodium]
- effect of pretreatment on particle-induced pro-inflammatory cytokine response [1]: significant repression
- IL-1α mRNA level of PMMA group compared with treated group (IL-1α mRNA): significantly higher
- IL-1β mRNA level of PMMA group compared with treated group (IL-1β mRNA): higher (but not significantly)

Compound: IRDye 800CW-labeled HPMA Copolymer [P-IRDye]
- NIR signal at particle implantation site, % of the original signal intensity [2]: 60%
- persistence of the P-IRDye signal [2]: over 7 days
